# Where a name gives a salt, the structure may show the parent alone. Read-outs that look alike come from different tables or passages of the source.
# Columns and labels:
# ovariectomized rats [1] = assay: Serum cholesterol analysis (OVX rat, 4-day dosing); type: in vivo, Sprague Dawley rats
# Text: (§1) Seventy-five day old female Sprague Dawley rats (weight range of 200 to 225g) were obtained from Charles River Laboratories (Portage, MI). The animals were either bilaterally ovariectomized (OVX) or exposed to a Sham surgical procedure at Charles River Laboratories, and then shipped after one week. Upon arrival, they were housed in metal hanging cages in groups of 3 or 4 per cage and had ad libitum access to food (calcium content approximately 0.5%) and water for one week. Room temperature was maintained at 22.2° ± 1.7° C with a minimum relative humidity of 40%. The photoperiod in the room was 12 hours light and 12 hours dark.
# (§2) After a one week acclimation period (therefore, two weeks post-OVX) daily dosing with test compound was initiated. 17a-ethynyl estradiol or the test compound were given orally, unless otherwise stated, as a suspension in 1% carboxymethylcellulose or dissolved in 20% cyclodextrin. Animals were dosed daily for 4 days. Following the dosing regimen, animals were weighed and anesthetized with a ketamine: Xylazine (2:1, V:V) mixture and a blood sample was collected by cardiac puncture. The animals were then sacrificed by asphyxiation with CO2, the uterus was removed through a midline incision, and a wet uterine weight was determined.
# Blood samples were allowed to clot at room temperature for 2 hours, and serum was obtained following centrifugation for 10 minutes at 3000 rpm. Serum cholesterol was determined using a Boehringer Mannheim Diagnostics high performance cholesterol assay. Briefly the cholesterol was oxidized to cholest-4-en-3-one and hydrogen peroxide. The hydrogen peroxide was then reacted with phenol and 4-aminophenazone in the presence of peroxidase to produce a p-quinone imine dye, which was read spectrophotemetrically at 500 nm. Cholesterol concentration was then calculated against a standard curve. The entire assay was automated using a Biomek Automated Workstation.
# ovariectomized rats [2] = system: ovariectomized rats; parameters: species or system Sprague Dawley rats; conditions: rat, in vivo; for Uterine EPO (V. max): po
# Text: as §1, §2
# Uteri were kept at 4° C until time of enzymatic analysis. The uteri were then homogenized in 50 volumes of 50 mM Tris buffer (pH - 8.0) containing 0.005% Triton X-100. Upon addition of 0.01% hydrogen peroxide and 10 mM O-phenylenediamine (final concentrations) in Tris buffer, increase in absorbance was monitored for one minute at 450 nm. The presence of eosonophils in the uterus is an indication of estrogenic activity of a compound. The maximal velocity of a 15 second interval was determined over the initial, linear portion of the reaction curve.
# [3] = system: ovariectomized test animals; assay: Osteoporosis Test Procedure (OVX rat, 35-day dosing, distal femur metaphysis X-ray image analysis); type: in vivo, Sprague Dawley rats; conditions: OVX rats, daily for 35 days; for Distal Femur Metaphysis (X-ray Image Analysis-Gray Score): mean ± SEM
# Text: as §1
# Following the General Preparation Procedure, infra, the rats were treated daily for 35 days (6 rats per treatment group) and sacrificed by carbon dioxide asphyxiation on the 36th day. The 35 day time period was sufficient to allow maximal reduction in bone density, measured as described herein. At the time of sacrifice, the uteri were removed, dissected free of extraneous tissue, and the fluid contents were expelled before determination of wet weight in order to confirm estrogen deficiency associated with complete ovariectomy. […] The uteri were then placed in 10% neutral buffered formalin to allow for subsequent histological analysis.
# The right femurs were excised and digitilized x-rays generated and analyzed by an image analysis program (NIH image) at the distal metaphysis. The proximal aspect of the tibiae from these animals were also scanned by quantitative computed tomography.
# In accordance with the above procedures, compounds of the present invention and ethynyl estradiol (EE2) in 20% hydroxypropyl b-cyclodextrin were orally administered to test animals. Distal femur metaphysis data presented in Tables 2 and 3 below are the results of formula I compound treatments compared to intact and ovariectomized test animals. Results are reported as the mean ± the standard error of the mean.
# [4] = Rattus norvegicus, po, 96 h, daily for 4 days, read-out: Serum Cholesterol (% decrease vs. OVX)
# [5] = Table 3, oral, dose 0.1 mg/kg, OVX control 6.2 ± 1.4, Sham 31.1 ± 6.3
SMILES,inhibition in vivo at 0.1 mg/kg (ovariectomized rats [1]; [4]) [%],Uterine EPO (V. max) (ovariectomized rats [2]; 0.1 mg/kg),inhibition in vivo at 1 mg/kg (ovariectomized rats [1]; [4]) [%],Uterine EPO (V. max) (ovariectomized rats [2]; 1 mg/kg),Uterine EPO (V. max) (ovariectomized rats [2]; 0.01 mg/kg),inhibition in vivo at 0.01 mg/kg (ovariectomized rats [1]; [4]) [%],other results
"C#C[C@]1(O)CC[C@H]2[C@@H]3CCc4cc(O)ccc4[C@H]3CC[C@@]21C [EE2, 17a-ethynyl estradiol, reference compound]",94.8,308.1,–,–,–,–,"serum cholesterol compared to the ovariectomized control animals (in words) (ovariectomized rats [1]; oral, 4 days, EE2 at 0.1 mg/kg/day): caused a decrease in serum cholesterol; eosinophil infiltration into the uterus (in words) (ovariectomized rats [2]): substantial, expected increase in eosinophil infiltration; bone loss / femur density after ovariectomy (in words) ([3]; oral): prevented this loss; Distal Femur Metaphysis (X-ray Image Analysis-Gray Score) ([3]; Table 2, oral in 20% hydroxypropyl b-cyclodextrin, dose 0.1 mg/kg, OVX control 8.1 ± 1.8, Sham 27.2 ± 6.0): 11.5 ± 2.9∗; Distal Femur Metaphysis (X-ray Image Analysis-Gray Score) [3, 5]: 17.8 ± 3.5"
"Oc1ccc(-c2sc3ccccc3c2Oc2ccc(OCCN3CCCCCC3)cc2)cc1 [Example 4, [3-[4-[2-(1-hexamethyleneimino)ethoxy]phenoxy]-2-(4-hydroxypbenyl)]benzo[b]thiophene]",53.7,3.9,62.1,4.8,–,–,inhibition in vivo at 10 mg/kg (ovariectomized rats [1]; [4]): 65.3%; Uterine EPO (V. max) (ovariectomized rats [2]; 10 mg/kg): 3.0
"CCN(CC)CCOc1ccc(Oc2c(-c3ccc(O)cc3)sc3ccccc23)cc1 [Example 5, [3-[4-[2-(1-N,N-diethylamino)ethoxy]phenoxy]-2-(4-bydroxyphenyl)]benzo[b]thiophene]",67.2,7.2,67.7,54.6,–,–,inhibition in vivo at 10 mg/kg (ovariectomized rats [1]; [4]): 60.2%; Uterine EPO (V. max) (ovariectomized rats [2]; 10 mg/kg): 59.4
"c1ccc(-c2sc3ccccc3c2Oc2ccc(OCCN3CCCCC3)cc2)cc1 [Example 7, [3-[4-[2-(1-piperidinyl)ethoxy]phenoxy]-2-(phenyl)]benzo [b]thiophene hydrochloride]",56.2,4.8,42.6,4.5,–,–,"inhibition in vivo at 5 mg/kg (ovariectomized rats [1]; Rattus norvegicus, po, 96 h, daily for 4 days, dose 5.0 mg/kg, read-out: Serum Cholesterol (% decrease vs. OVX)): 29.5%; Uterine EPO (V. max) (ovariectomized rats [2]; 5 mg/kg): 4.8"
"Oc1ccc(-c2sc3cc(O)ccc3c2Oc2ccc(OCCN3CCCCC3)cc2)cc1 [Example 20, [6-hydroxy-3-[4-[2-(1-piperidinyl)ethoxy]-phenoxy]-2-(4-hydroxyphenyl)]benzo [b]thiophene hydrochloride]",–,3.0,–,–,0.9,–,"inhibition in vivo at 0.05 mg/kg (ovariectomized rats [1]; Rattus norvegicus, po, 96 h, daily for 4 days, dose 0.05 mg/kg, read-out: Serum Cholesterol (% decrease vs. OVX)): 35.9%; Uterine EPO (V. max) (ovariectomized rats [2]; 0.05 mg/kg): 3.0"
"Oc1ccc(-c2sc3cc(O)ccc3c2Oc2ccc(OCCN3CCOCC3)cc2)cc1 [Example 24, [6-Hydroxy-3-[4-[2-(morpholino)ethoxy]phenoxy]-2-(4-hydroxyphenyl)]benzo[b]thiophene hydrochloride]",46.4,0.9,79.3,29.4,3.6,23.7,"Distal Femur Metaphysis (X-ray Image Analysis-Gray Score) [3, 5]: 18.3 ± 2.6∗; Distal Femur Metaphysis (X-ray Image Analysis-Gray Score) ([3]; Table 3, oral, dose 1.0 mg/kg, OVX control 6.2 ± 1.4, Sham 31.1 ± 6.3): 19.6 ± 2.3∗; Distal Femur Metaphysis (X-ray Image Analysis-Gray Score) ([3]; Table 3, oral, dose 3.0 mg/kg, OVX control 6.2 ± 1.4, Sham 31.1 ± 6.3): 17.1 ± 5.5"
"CCN(CC)CCCOc1ccc(Oc2c(-c3ccc(O)cc3)sc3cc(O)ccc23)cc1 [Example 25, [6-Hydroxy-3-[4-[3-(1-N,N-diethylamino)propoxy]phenoxy]-2-(4-hydroxyphenyl)]benzo [b]thiophene hydrochloride]",67.6,3.3,73.9,36.0,3.0,13.1,–
"CC(C)N(CCOc1ccc(Oc2c(-c3ccc(O)cc3)sc3cc(O)ccc23)cc1)C(C)C [Example 26, [6-Hydroxy-3-[4-[2-(1-N,N-diisopropylamino)-ethoxy]phenoxy]-2-(4-hydroxyphenyl)]benzo[b]thiophene hydrochloride]",45.2,29.1,62.7,175.1,4.8,29,–
"Oc1ccc(-c2sc3cc(O)ccc3c2Oc2ccc(OCCCN3CCCCC3)cc2)cc1 [Example 27, [6-Hydroxy-3-[4-[3-(piperidino)propoxy]phenoxy]-2-(4-hydroxyphenyl)]benzo[b]thiophene hydrochloride]",50.8,4.8,76.5,52.5,3.3,12.2,–
"O=C(Oc1ccc(-c2sc3cc(OC(=O)c4ccccc4)ccc3c2Oc2ccc(OCCN3CCCCC3)cc2)cc1)c1ccccc1 [Example 43, [6-Benzoyloxy-3-[4-[2-(1-piperidinyl)-ethoxy]phenoxy]-2-(4-benzoyloxyphenyl)]benzo[b]thiophene hydrochloride]",43.8,4.8,39.4,6.0,3.3,9.2,–
"CCS(=O)(=O)Oc1ccc(-c2sc3cc(OS(=O)(=O)CC)ccc3c2Oc2ccc(OCCN3CCCCC3)cc2)cc1 [Example 44, [6-Ethylsulfonyloxy-3-[4-[2-(1-piperidinyl)ethoxy]-phenoxy]-2-(4-ethylsulfonyloxyphenyl)] benzo[b]thiophene hydrochloride]",43.8,88.5,67.4,94.5,3.6,12.6,–
